According to US6455303B1, “Detection of biologically active molecules by use of pre-activated cell-based biosensors in liquid-based separation systems” (Cellectricon AB, priority 1997, dated 2002):

Assays:
[1] = system: AMPA receptors; experiment: Capillary electrophoresis-patch clamp detection, kainate pre-activated whole-cell biosensor; type: cell-based; conditions: 100 μM KA in capillary; holding potential −70 mV; interneurons from rat olfactory bulb
Method: Separation of mixtures of glutamate receptor antagonists were performed using cell-based biosensor-compatible buffers. A cell-based biosensor-compatible buffer is a buffer which effectively keeps the cell-based biosensor in a functional and viable condition during the course of the experiment or the analysis procedure. slightly modified standard HEPES-saline buffer containing 140 mM NaCl, 5 mM KCl, 1 mM MgCl2, 1 mM CaCl2, 10 mM glucose and 10 mM HEPES (pH 7.4, NaOH) was used as extracellular and capillary buffer in examples 1 and 2 except in the separation of Mg^2+ where MgCl2 were omitted. As described in the examples, the preferred agonist were only—included in the capillary solution. […]
(§1) The patch clamp detection was performed in the whole-cell configuration as described by Hamill, et al. (see Hamill, O. P., et al, Pflug. Arch. 391:85, 1981). […] Patch pipettes were fabricated from thick-walled borosilicate glass (code no GC150-10, Clark Electromedical Instruments, Pangboume, Reading, UK). […]
(§2) The signals were recorded with a patch clamp amplifier (Model List L/M EPC-7, List-Electronic, Darmstadt, Germany), digitized (20 kHz, PCM 2 A/D VCR adapter, Medical Systems Corp., NY, USA), and stored on videotape. […]

[2] = system: N-methyl-D-aspartate receptor; experiment: Capillary electrophoresis-patch clamp detection, NMDA/glycine pre-activated whole-cell biosensor; type: cell-based, rat
Method: Separation of mixtures of glutamate receptor antagonists were performed using cell-based biosensor-compatible buffers. A cell-based biosensor-compatible buffer is a buffer which effectively keeps the cell-based biosensor in a functional and viable condition during the course of the experiment or the analysis procedure. slightly modified standard HEPES-saline buffer containing 140 mM NaCl, 5 mM KCl, 1 mM MgCl2, 1 mM CaCl2, 10 mM glucose and 10 mM HEPES (pH 7.4, NaOH) was used as extracellular and capillary buffer in examples 1 and 2 except in the separation of Mg^2+ where MgCl2 were omitted. As described in the examples, the preferred agonist were only—included in the capillary solution.
The cells used were interneurons from rat olfactory bulb acutely isolated according to the procedures described by Jacobson et al. (see Jacobson, I., Neurosci. Res. Comm. 8:11, 1991, and Jacobson, I., et al., Neurosci. Res. Comm. 10:177, 1992).
Newborn or adult rats (10-200 g) were anaesthetized with halothane (ISC Chemicals Ltd., Avonmouth, England) and decapitated. The olfactory bulbs were dissected and sliced into four pieces and placed in an incubation chamber. The chamber contained proteases from Aspergillus oryzae (2.5 mg/ml) which were dissolved in pre-warmed (32° C.) HEPES-saline buffer (see above). After 25-30 min., the slices were washed with the same buffer solution for 20 min. The solutions were constantly perfused with 95% O2 and 5% CO2 during both the enzymatic treatment arid the washing. […]
as §1, §2

[3] = voltage ramp −80 to +40 mV, NMDA receptor response attenuated by separated Mg^2+

| SMILES | effect on KA-activated current responses [1] | effect on N-methyl-D-aspartate-activated current responses ([2]; Mg^2+ 2 mM injected, 200 μM NMDA and 20 μM glycine in capillary, holding potential −70 mV, interneurons from rat olfactory bulb) | current-to-voltage relationship: inward currents at membrane resting potentials [2, 3] | current-to-voltage relationship: outward currents at positive potentials [2, 3] |
| --- | --- | --- | --- | --- |
| N#Cc1cc2c(cc1[N+](=O)[O-])=NC(=O)C(=O)N=2 [CNQX, 6-cyano-7-nitroquinoxaline-2,3-dione] | transient attenuations of KA-activated current responses |  |  |  |
| O=C(O)c1nc2cc(Cl)c(Cl)cc2nc1O [DCQXC, 6,7-dichloro-3-hydroxy-2-quinoxaline-carboxylic acid] | transient attenuations of KA-activated current responses |  |  |  |
| [Mg+2] [Mg^2+] |  | transient Gaussian-distributed attenuation of N-methyl-D-aspartate-activated current responses | blockade of inward currents at membrane resting potentials | unaltered outward currents at positive potentials |
